From PubChem BioAssay (NCI)
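Results reflect a 48-hour exposure of cells in 96-well plates to compound at five concentrations. At the GI50, growth is halved. TGI: concentration producing complete growth inhibition.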 Where a SMILES comes first, the peptide text is derived from it. [ ]: non-standard residue; d: D form. The star is where a group is joined. ξ: configuration not given here. ξF = NC(Cc1ccccc1)C(=O)O; Cbz = O=C(OCc1ccccc1)*; Aib = CC(C)(N)C(=O)O

Legend:
Test in all cases: DTP human tumour cell line panel, 48 h
HL-60(TB) leukemia = system: HL-60(TB) leukemia
CCRF-CEM leukemia = system: CCRF-CEM leukemia
TK-10 renal = system: TK-10 renal
MOLT-4 leukemia = system: MOLT-4 leukemia
HCC-2998 colon = system: HCC-2998 colon
SK-MEL-2 melanoma = system: SK-MEL-2 melanoma
SNB-19 CNS = system: SNB-19 CNS
SK-MEL-5 melanoma = system: SK-MEL-5 melanoma
SF-268 CNS = system: SF-268 CNS
UACC-62 melanoma = system: UACC-62 melanoma

SMILES | TGI (HL-60(TB) leukemia) [µM] | TGI (CCRF-CEM leukemia) [µM] | TGI (TK-10 renal) [µM] | TGI (MOLT-4 leukemia) [µM] | TGI (HCC-2998 colon) [µM] | TGI (SK-MEL-2 melanoma) [µM] | TGI (SNB-19 CNS) [µM] | TGI (SK-MEL-5 melanoma) [µM] | GI50 (HL-60(TB) leukemia) [µM] | GI50 (TK-10 renal) [µM] | GI50 (SF-268 CNS) [µM] | TGI (SF-268 CNS) [µM] | GI50 (HCC-2998 colon) [µM] | GI50 (SNB-19 CNS) [µM] | GI50 (UACC-62 melanoma) [µM] | TGI (UACC-62 melanoma) [µM] | GI50 (SK-MEL-5 melanoma) [µM] | GI50 (CCRF-CEM leukemia) [µM] | GI50 (MOLT-4 leukemia) [µM] | GI50 (SK-MEL-2 melanoma) [µM]
Nc1nc2ccc(OCC(O)CN3CCCCC3)cc2[n+]([O-])n1 (stereo not given) | > 100 | > 100 | > 100 | > 100 | > 100 | > 100 | > 100 | > 100 |  |  |  |  |  |  |  |  |  |  |  | 
N=C(N)c1ccc(-c2ccc(-c3cccs3)s2)s1 | 3.42 |  | 2.89 |  | 2.48 |  | 3.07 | 2.34 | 1.58 | 1.48 | 1.79 | 3.48 | 1.13 | 1.56 | 1.82 | 3.28 | 1.02 |  |  | 
CCOC(=O)CCC(NC(=O)OCc1ccccc1)C(=O)NC(CCC(=O)OCC)C(=O)NNC(=O)OC(C)(C)C (stereo not given) | > 100 | > 100 |  | > 100 | > 100 | > 100 | > 100 | > 100 |  |  |  |  |  |  |  | > 100 |  |  |  | 
c1cncc(O[Si](Oc2cccnc2)(Oc2cccnc2)Oc2cccnc2)c1 |  |  | > 100 | > 100 | > 100 | > 100 | > 100 | > 100 |  |  |  |  |  |  |  | > 100 |  |  |  | 
Nc1c(-c2ccccc2[N+](=O)[O-])nc2ccccn12 | > 100 | > 100 | > 100 | > 100 | > 100 | > 100 |  | > 100 |  |  |  | > 100 |  |  |  | > 100 |  |  |  | 
COc1cc(Nc2nnc3n2S(=O)(=O)c2cc(C)c(Cl)cc2S3)cc(OC)c1 | 49.7 | > 100 | 81.3 | 60.9 | > 100 |  | 77.6 | 68.7 |  |  |  | 50.7 |  |  |  | 57.6 |  |  |  | 
Cc1ccc(N2CCN(CCC(=O)O)CC2)cc1 |  | > 100 | > 100 |  |  | > 100 | > 100 | > 100 |  |  |  | > 100 |  |  |  | > 100 |  |  |  | 
NCCSCc1ccccc1Cl |  | 78.8 | 74 | 86.3 | 38.7 | 87.5 | > 100 | > 100 |  |  |  | > 100 |  |  |  | > 100 |  |  |  | 
CCOc1ccc(N=NS(=O)(=O)O)cc1 | > 100 | > 100 | > 100 |  | > 100 | > 100 | > 100 | > 100 |  |  |  | > 100 |  |  |  | > 100 |  |  |  | 
CC(=O)ON1C(=O)c2cccc3cccc(c23)C1=O | 45.5 | > 100 | 88.5 | 43 | > 100 | 67.6 | > 100 | 28.2 |  |  |  | > 100 |  |  |  | 52.5 |  |  |  | 
COC(=O)C(C)(C)NC(=O)C(Cc1ccccc1)NC(=O)C(C)(C)NC(=O)OCc1ccccc1 (stereo not given) (Cbz-[Aib]-[ξF]-[Aib]-OMe) | > 100 | > 100 | > 100 | > 100 | > 100 |  | > 100 | > 100 |  |  |  | > 100 |  |  |  | > 100 |  |  |  | 
C(=N\OCCc1ccccc1)/c1cccnc1 | > 100 | > 100 | > 100 | > 100 | > 100 | > 100 | > 100 | > 100 |  |  |  | > 100 |  |  |  | > 100 |  |  |  | 
COc1cc(-c2n/c(=C\c3c(O)[nH]c4cc(Cl)ccc34)cc3c2=Nc2ccccc2-3)cc(OC)c1OC | > 100 | > 100 | 5.26 | 8.35 | > 100 | 12.3 | 15.5 | 23 | 84.4 | 2.34 | 2.72 | 10.5 | 7.32 | 3.52 | 3.4 | 14.1 | 3.98 | 3.88 | 2.72 | 2.51
Clc1ccc(-c2ccc(-c3nnc(COc4ccc(OCc5nnc(-c6ccc(-c7ccc(Cl)cc7Cl)o6)o5)c(Cl)c4)o3)o2)c(Cl)c1 | > 100 | 67.1 | > 100 | 64.2 | > 100 | > 100 | > 100 | > 100 |  |  |  | > 100 |  |  |  | > 100 |  |  |  | 
C[CH2][Ge]([CH2]C)([CH2]C)[O]C(=O)CCC(=O)[O][Ge]([CH2]C)([CH2]C)[CH2]C |  | > 100 | > 100 | > 100 | > 100 | > 100 | > 100 |  |  | > 100 | > 100 | > 100 | 90.9 | > 100 | > 100 | > 100 |  | 23.7 | 39 | > 100
NC(=O)/C=c1/c2ccccc2n2nc3ccccc3c12 | 7.58 | > 100 | > 100 | 7.69 | 36.8 | 57.1 | 49.3 | > 100 |  |  |  | 47.5 |  |  |  | 37 |  |  |  | 
